According to a melting point compilation (Tetko et al.; mined from patent text by program, amines drawn as free bases though some values may be those of a salt):

Row | melting point [°C] | SMILES
1 | 248 to 249 | COc1cccc(OC)c1-c1nc2nccnc2[nH]1
2 | 155 to 160 | CCOc1cc2ncc(C#N)c(Nc3ccc4c(c3)S(=O)(=O)C=C4)c2cc1OCC
3 | 180 to 182 | NC(=O)c1nccc(-c2ccc(Oc3ccc(F)cc3)cc2)n1
4 | 127 to 129 | CCCNC(=NS(=O)(=O)N(C)C)N1CC(c2ccccc2)C(c2ccc(Cl)cc2)=N1 (configuration not stated)
5 | 161 to 163 | CNC(=S)NS(=O)(=O)c1cc(CCNC(=O)/C=C/c2cccs2)ccc1OCCOC(F)(F)F
6 | 218 to 219 | COc1cc(OC)c2c(=O)[nH]c(-c3cc(C)c(OCCn4ccnc4)c(C)c3)nc2c1
7 | 132 to 133 | O=C(O)CCCCCc1nc2ccccc2n1-c1ccccc1
8 | 215 | O=C(Nc1n[nH]c2cc(Cl)ccc12)c1cccs1
9 | 172 to 174 | O=c1c(Br)c(OCc2ccc(F)c(F)c2)ccn1Cc1cccc(F)c1
10 | 146 to 149 | CCOc1cccc(-c2c(C)c(=O)cc(-c3ccccc3)n2-c2ccccc2)c1
11 | 262 | O=C(NC(Cc1ccc(OCc2ccoc2)cc1)C(=O)O)c1cn2cc(-c3ccc(Cl)cc3)ccc2n1 (configuration not stated)
12 | 194 to 197 | Cc1c(CC(=O)NS(=O)(=O)c2ccccc2)c2cc(OCc3ccc4ccccc4n3)ccc2n1Cc1ccc(Cl)cc1
13 | 65 to 66.5 | O=C(CC(=O)C(F)F)c1ccc(Cl)cc1
14 | 102 to 105 | CC(=O)C(=Cc1ccc(S(=O)(=O)c2ccccc2)cc1)C(C)=O
15 | 163 | COCc1cc2c(nc(C)n2C)c(O)c1CCC(=O)c1ccccc1C
16 | 116 to 117 | COc1cc(Nc2nccc(-c3ccc(N4CCN(CCCO)CC4)nc3)n2)cc(OC)c1OC
17 | 130 to 131 | COc1cc(COc2nn(-c3ccccc3)cc2/C=C/c2nc(C)cs2)ccc1OCc1nc(-c2ccco2)oc1C
18 | 148 to 150 | OCc1ccc2c(c1)ncn2Cc1ccccc1
19 | 217 to 219 | COC(=O)c1ccc2c(c1)SC(c1ccccc1)C(c1ccc3c(c1)NC(=O)CO3)=C2 (configuration not stated)
20 | 204 to 205 | CN(c1cccc2cc(-c3ncc(CCl)s3)[nH]c12)S(=O)(=O)c1cccs1
21 | 159 to 160 | O=C(NCCO)c1cccc(-c2ccc(F)c3cc(Cc4cccc(C(F)(F)F)c4)oc23)c1
22 | 137 to 138 | Cc1ccc(CN2CCc3ccc(C(=O)CCC(=O)N4CCC(c5ccc(Cl)cc5)CC4)cc3CC2)cc1
23 | 154 to 155 | OC(Cc1ccncc1)(c1ccccc1)c1ccccc1
24 | 72 to 75 | COC(=O)C(NCc1cn(Cc2ccccc2)c2ccccc12)c1ccccc1 (racemic)
25 | 159 to 161 | COc1ccc(CC(S)C(N)=O)cc1C(=O)NCc1ccc(C(F)(F)F)cc1 (configuration not stated)
26 | 220 to 221 | COc1cc(OC)nc(NC(=O)NS(=O)(=O)c2c(Cl)cccc2Cn2cncn2)n1
27 | 55 to 57 | CC1CN(c2ccncc2Oc2ccccc2)CCN1 (configuration not stated)

Row | melting point [°C] | SMILES
28 | 158 to 160 | CS(=O)(=O)c1ccc(-c2cc(F)c(F)cc2Br)cc1
29 | 86 | Cc1ccc(C(=O)c2cc([N+](=O)[O-])ccc2N2CCC(C)CC2)cc1
30 | 271 | O=C1Nc2ccc(Cl)cc2C1(O)c1cccc2c1OCO2 (configuration not stated)
31 | 242 to 244 | CCOC(=O)c1cc2c3ccccc3[nH]c(=O)n2n1
32 | 107 to 109 | Cc1cccc2c1C=Cc1ccccc1C2(C)O (configuration not stated)
33 | 167 to 168 | CCOC(=O)C(C)NC(=O)N1CCc2cc(S(=O)(=O)N3CCN(c4cccc(Cl)c4)CC3)ccc21 (configuration not stated)
34 | 161 to 163 | O=C(O)Cc1coc2cc(OCc3ccc(OCc4ccc(C(F)(F)F)cc4)cc3)ccc12
35 | 162 to 163 | CC(=O)CCc1cc(-c2ccncc2)sc1-c1ccncc1
36 | 221 | CC(=O)Nc1cccc2c1C(=O)c1ccccc1C2=O
37 | 191 to 194 | CC(=Cc1ccc(Oc2cccnc2)cc1)C(=O)O
38 | 226 | O=C(N[C@H]1CC[C@H](CCN2CCN(c3nccc4c3OCC4)CC2)CC1)c1ccc(-n2cccn2)cc1
39 | 198 to 199 | COc1cc2ncnc(Nc3nccc4ccccc34)c2cc1OC
40 | 133 to 136 | Cc1ccccc1OCC(=O)Nc1c(C)cccc1C(=O)O
41 | 180 to 181 | CNC(=S)Nc1nc(C(C)c2ccc(-c3ccccc3)c(F)c2)cs1 (configuration not stated)
42 | > 280 | CS(=O)(=O)c1c(C(=O)NN=Cc2ccc(Cl)cc2)[nH]c2ccccc12
43 | 106 to 107 | Cc1ccnc2c1C(=O)CC(c1ccccc1Br)C2 (configuration not stated)
44 | 80 to 82 | O=C(CC(Cc1cccc2ccccc12)C(=O)N1C(=O)OCC1Cc1ccccc1)N1CCOCC1 (configuration not stated)
45 | 198 to 201 | COc1ccc(-c2cn[nH]c2N)cc1
46 | 204 to 205 | C=C(C)C(=O)Nc1ccc(O)c(-n2nc3ccc(Cl)cc3n2)c1
47 | 294 to 296 | Nc1cc(-c2ccncc2)cc2nc(-c3ccco3)nn12
48 | 123 to 125 | Fc1cccc(F)c1-c1c(Cl)nc(Cl)n1-c1ccc(Cl)cc1
49 | 142 to 143 | O=C(O)CN1CC(c2ccc(Cl)cc2)CC1=O (configuration not stated)
50 | 168 to 170 | Cc1c(NC(=O)c2ccc(-c3ccc(F)cc3)cc2)ccc2cc(C(C)N3CCCCC3)cnc12 (configuration not stated)
51 | 125 to 127 | CC(C)NC[C@H](O)COc1ccc(Cc2nc(Br)c[nH]2)cc1
52 | 134 to 136 | CCCCCC(=O)c1cccc(NC(=O)c2ccc(Cl)cc2O)c1
53 | 94 to 98 | COC(=O)CCn1nnnc1C1N2C(=O)C(NC(c3ccccc3)(c3ccccc3)c3ccccc3)C2SC1(C)C (configuration not stated)

Second part, the compound before the results:

Row | SMILES | melting point [°C]
54 | CCCc1nc(C(C)=O)c(C#N)[nH]1 | 93 to 95
55 | CN(C)C(c1cccs1)C1CCC(=NO)CC1 (configuration not stated) | 118 to 121
56 | COC(=O)C=Cc1ccc(C)s1 | 59 to 60
57 | CC(=O)OC1CC2=CCC3C4CCC(C(C)CCCC(C)C)C4(C)CCC3C2(C)C(O)C1O (configuration not stated) | 131 to 133
58 | COc1ccc(NN=C(C)C)cc1 | 163 to 164
59 | CC1=NN(C)C(=O)C1=Cc1ccc(Cl)cc1Cl | 128
60 | CC(=O)SCCC(=O)N1c2ccccc2C(C)(C)C1C(N)=O (configuration not stated) | 156 to 158
61 | CCCCCCCCCCCCCCCCS(N)(=O)=O | 98 to 100
62 | COc1ccc(C2=NNC(=O)[C@H]3CC=CC[C@@H]23)cc1OC (relative stereo) | 173 to 174
63 | Nc1ncc(Br)c(NCC2(CO)CCC2)n1 | 156 to 158
64 | O=C(O)CCCNC(=O)c1cc(Br)no1 | 140 to 141
65 | COc1cc(F)cc2c1-c1c(F)cc(F)cc1C2=O | 164 to 166
66 | O=C(O)C1CC(=Cc2ccccc2)CC1C(=O)O (configuration not stated) | 172
67 | Cc1cc(C)c2c(c1C)OC(C)(CC(=O)O)C2 (configuration not stated) | 139 to 140
68 | CCn1c(=O)c2c(nc(/C=C/c3ccc(OC(C)=O)c(OC)c3)n2C)n(CC)c1=O | 194 to 195
69 | CC(C)(C)OC(=O)N1CC2CCCCC(C1)C2=O | 50 to 52
70 | CCOCc1nc2c(N)nc3c(c2n1CCCCS(C)(=O)=O)CCCC3 | 170 to 171
71 | COc1ccc(Cn2c(=O)n(C3CCCCC3)c3cc(Cl)ccc32)cc1OC | 59
72 | CCCNC(=O)C1Cc2[nH]c3ccc(OC)cc3c2C1 (configuration not stated) | 141 to 143
73 | CCOC(=O)c1c(C)nc2c(cnn2CC)c1NCCC(C)O (configuration not stated) | 94.5 to 96.5
74 | O=[N+]([O-])c1ccc(C2OCCc3cc4c(cc32)OCO4)cc1 (configuration not stated) | 149 to 150
75 | COC(=O)Cc1cc(OC)c(OC)cc1[N+](=O)[O-] | 110 to 111
76 | COc1ccc(C2(C#Cc3ccnc(N)n3)CCC(=O)CC2)cc1OC1CCCC1 | 68 to 70
77 | Nc1[nH]ncc1-c1nc(-c2ccco2)n[nH]1 | 175 to 176
78 | Nc1c(F)cc(C=O)c(F)c1Br | 132 to 133

Row | SMILES | melting point [°C]
79 | COc1ccc(C2Nc3cc(OC)c(OC)cc3C(C)=[N+]2[O-])cc1 (configuration not stated) | 161 to 163
80 | CC1Cc2ccc(Cl)cc2C(c2ccc([N+](=O)[O-])cc2)=NN1C(=O)C(F)(F)F (configuration not stated) | 150 to 152
81 | CCCCCCNC(C)=C1C(=O)OC(=O)C(C(C)=O)=C1O | 80 to 82
82 | COC(=O)c1c(O)ccc(CNC(=O)CCCCCNC(=O)OC(C)(C)C)c1O | 73 to 76
83 | C=CCOc1ccccc1C=C(C=O)C(C=O)=Cc1ccccc1OCC=C | 117 to 118
84 | CCCCCCCCCCCCC(=O)c1c[nH]c(C2(OC)OCCSSO2)c1 (configuration not stated) | 77 to 78
85 | CCc1cccc(C)c1CNc1c(NC(C)(C)C)c(=O)c1=O | 240 to 244
86 | c1ccc2c(NCCN3CCOCC3)noc2c1 | 79 to 80
87 | CC=NN(C)C1=NOCc2ccc(Cl)cc21 | 111 to 112
88 | Clc1ccc(Cl)c(COC2COC(c3ccccc3)OC2)c1Cl (configuration not stated) | 93.5 to 94
89 | CC(C)(COc1ccc(CNC(=O)C2Cc3ccccc3N2S(=O)(=O)c2ccc(-c3ccccc3C(F)(F)F)cc2)cc1)C(=O)O (configuration not stated) | 98 to 105
90 | CN(C)c1cc(C=O)cc(N(C)C)c1N1CCCCC1 | 114 to 116
91 | COc1ccc(C(=O)N(C(=O)c2ccc(OC)cc2)c2nc3ccc(N4CCN(C)CC4)cc3c(NCc3ccccc3)c2C#N)cc1 | 176
92 | CC(C(=O)O)N(O)C(C)(C)C (configuration not stated) | 73 to 74
93 | COC(=O)C=C(Br)SC#N | 139 to 142
94 | N#CCN1CCC(c2noc3cc(F)ccc23)CC1 | 130 to 132
95 | COc1cc(C#N)cc(Br)c1O | 144 to 145
96 | CCOC(=O)CC(CC(=O)Nc1ccc(Cl)c(C=C(Cl)C(=O)OCC)c1)C(F)(F)F (configuration not stated) | 115 to 117
97 | CN1CCN(c2ncc(-c3cnc4c(c3)N(Cc3c(F)ccc(F)c3Cl)CCN4)cn2)CC1 | 194 to 195
98 | CCCC(=O)OCOC(=O)C1=C(C)NC(C)=C(C(=O)OC)C1c1cccc(Cl)c1Cl (configuration not stated) | 128 to 129
99 | COC(=O)c1sccc1S(=O)(=O)NC(=O)Nc1nc(C)cc(C)n1 | 191 to 193
100 | CNC(=S)N(O)C(C)c1cc(C(C)(C)C)c(O)c(C(C)(C)C)c1 (configuration not stated) | 175 to 176
101 | CCn1c(=O)c2[nH]c(/C=C/c3cc(OC)cc(OC)c3)nc2n(CC)c1=O | > 270
102 | CC(=O)Nc1ccc(S(=O)(=O)NC23CC4CC(CC(C4)C2)C3)cc1 | 290
